The source of these data is PubChem BioAssay AID2252 (Southern Research Specialized Biocontainment Screening …, 2010).

The structures appear in SMILES notation. Several values for one entry are separate records, joined by “and”; a condition that tells them apart may be missing. Equal entries are not always repeated.

For this test, the system named is THP-1 viability, CellTiter-Glo luminescence, 72 h. Nature of the test: PubChem AID 2252.

By EC50 is commonly meant the concentration at which the effect is half-maximal. As for `CCCOc1ccc(-c2cn3ccccc3n2)cc1`, the concentration for a half-maximal effect (EC50) is 43.5 µM.
For `CC[C@H]1OC(=O)C[C@@H](O)[C@H](C)[C@@H](O[C@@H]2O[C@H](C)C[C@H](N(C)C)[C@H]2O)[C@@H](CC=O)C[C@@H](C)C(=O)C=C[C@]2(C)O[C@H]2[C@@H]1C` the value was 12.2 µM.
The value for `CCOc1ccc(-c2nc(N)ncc2-c2ccccc2)c(O)c1` was 46.8 µM; that for `NC1=C(Br)C(=O)c2ccccc2C1=O` was 9 µM; that for `Clc1ccc(C[n+]2cc(-c3ccc(Cl)cc3)n3c2CCC3)cc1` was 22.7 µM.
For `O=C(N/N=C/c1cc(Br)ccc1O)c1ccncc1` the value was 5.06 µM; for `CCOC(=O)c1ccccc1-n1c(C)cc(C2N=C(N)Nc3nc4ccccc4n32)c1C` (centres undefined), 6.21 µM.
Regarding `O=S(=O)(Nc1c(S(=O)(=O)c2ccccc2)c2nc3ccccc3nc2n1C1CCCCC1)c1ccccc1`, the EC50 was 12.3 µM.
The value for `C/C(=N/Nc1ccnc2cc(Cl)ccc12)c1ccc(N)cc1` was 8.34 µM.
The value for `O=C(C[n+]1cccc(CNC(=O)c2ccc(OC(F)F)cc2)c1)Nc1ccc(SC(F)F)cc1` was 7.22 µM.
As to `Cc1ccc(-c2cc(N)nc(-c3ccccc3)c2)cc1`, the EC50 was 28.6 µM.
For `CCCCCc1ccc(OCCCC[n+]2ccccc2)c(CCCCC)c1` the value was 1.48 µM; for `O=C(NC(=S)NNC(=O)c1cccs1)c1ccco1`, 16.2 µM; for `COC(=O)CC1C(=O)NCCN1C(=O)CSc1nc2ccc([N+](=O)[O-])cc2s1` (centres undefined), under 0.1 µM.
The value for `CCOc1cccc(/C=N/NC(=O)c2cc(C3CC3)[nH]n2)c1O` was 5.46 µM; that for `Cc1ccc(-c2csc(NC(=O)C[n+]3cc(-c4ccc(C)cc4)n4c3CCC4)n2)cc1` was 8.33 µM.
The value for `O=[N+]([O-])c1cccnc1S(=O)(=O)c1ccccc1` was 1.77 µM; that for `OC(CNCCc1ccccc1)COc1ccc(OCC(O)CNCCc2ccccc2)cc1` (centres undefined) was 7.35 µM.
For the compound `CN(C)CCNC(=O)/C(=C/c1ccc(-c2ccc(Cl)cc2)o1)NC(=O)c1ccccc1`, the concentration for a half-maximal effect (EC50) is 11.3 µM.
With `O=C(/C=C/c1ccco1)NC(=S)NNC(=O)c1ccco1`, the EC50 was 32.3 µM.
The value for `CSc1ccc2c(c1)C(N1CCN(C)CC1)Cc1ccccc1S2` (centres undefined) was 9.33 µM; that for `O=C(N/N=C/c1cc(Cl)cc(Cl)c1O)c1ccncc1` was 5.38 µM.
With `Cc1cc(C)c2c(N)c3ccccc3nc2n1`, the EC50 is 12.4 µM.
For `O=C(Nc1ccc(Cl)cc1)N1CCOC12CCC1(CC2)OCCO1` the value was under 0.1 µM.
Regarding `Cc1cc(=O)oc2ccc(OCC(=O)N3CCC(C)CC3)cc12`, the EC50 is under 0.1 µM.
The value for `CCCCCCCCNC(C)C(O)c1ccc(SC(C)C)cc1` (centres undefined) was 3.57 µM.
Take `Cc1ccc(N2C(N)=C(C#N)C(c3cccnc3)C3=C2CC(C)(C)CC3=O)cc1` (centres undefined): the concentration for a half-maximal effect (EC50) is 32.9 µM.
Turning to `COc1ccc(N2C3=C(CC4=C2CC(C)(C)CC4=O)C(=O)CC(C)(C)C3)cc1`, the EC50 was 7.53 µM.
For `CC(=O)c1cc(O)c2ccccc2c1O` the value was 41.2 µM; for `c1cnc2c(c1)ccc1cccnc12`, 3.14 µM and 2.97 µM; for `O=C(N/N=C/c1sc2ccccc2c1O)c1cccc2ccccc12`, 2.58 µM.
`CN(C)CCCN(C(=O)c1cc2cc([N+](=O)[O-])ccc2s1)c1nc2cc3c(cc2s1)OCCO3`: the EC50 was 3.04 µM.
The value for `C/C(=N\N=C(N)N)c1ccc(Cl)c(Cl)c1` was 13.3 µM.
For `Cc1cc(C2CCCCC2)n(O)c(=O)c1` the value was 0.63 µM.
With `Cc1ccc(-c2cc(-c3ccc(C)cc3)[n+](-c3ccccc3)c(-c3ccc(C)cc3)c2)cc1`, the concentration for a half-maximal effect (EC50) was 0.49 µM.
Turning to `Cc1ccc(-c2c[n+](Cc3ccc(Cl)c(Cl)c3)c3n2CCC3)cc1`, the EC50 was 4.37 µM.
For `CCOc1ccc(Nc2c3ccccc3nc3ccccc23)cc1` the value was 2.49 µM; for `Cc1ccc(C)c(NC(=O)CCC(=O)N/N=C/c2cc([N+](=O)[O-])ccc2O)c1`, 17.9 µM.
`O=[N+]([O-])c1cc(Cl)cc(/C=N/NC(=S)Nc2ccc(S(=O)(=O)N3CCOCC3)cc2)c1O`: the EC50 was 27.1 µM.
For `Cc1ccc(-c2csc(N=C(N)N)n2)c(C)c1` the value was 26.9 µM; for `Oc1ccc(C[C@@H]2CNCCN2CCC23CC4CC(CC(C4)C2)C3)cc1`, 9.86 µM; for `CN1CCN(C(c2cccc(Cl)c2)c2ccccc2Cl)CC1` (centres undefined), 35 µM.
The value for `OC(CNCC1CCCO1)Cn1c2ccc(Cl)cc2c2cc(Cl)ccc21` (centres undefined) was 12.9 µM; that for `Cc1cc(NC2CCCCC2)nc(NCc2ccccc2)n1` was 14.9 µM.
Regarding `O=C(Nc1csc(Cl)c1)c1ccccc1`, the EC50 is under 0.1 µM.
For `COc1ccc(CNCCc2ccc(Cl)cc2)cc1OCc1ccccc1` the value was 24.5 µM; for `CN(C)c1ccc2nc3ccc(=[N+](C)C)cc-3sc2c1`, 0.72 µM; for `CCCCCCCCCCCCCCCC[n+]1cccc(C(=O)N(CC)CC)c1`, 0.44 µM.
For `CSc1nc2cc(Oc3cccc(Cl)c3Cl)c(Cl)cc2[nH]1` the value was 43.9 µM; for `CN1CCN(C2Cc3ccc(Cl)cc3Sc3ccc(F)cc32)CC1` (centres undefined), 11.6 µM.
The value for `O=C(NCCCNc1ccnc2cc(Cl)ccc12)c1ccccc1F` was 21.2 µM.
As for `Cc1cc(N2CCC(C)CC2)nc(NCc2ccccc2)n1`, the EC50 is 6.23 µM.
Turning to `Cc1cc(Cl)c(OCCCNCc2ccccc2)c(Br)c1`, the EC50 was 21.4 µM.
The value for `O=C(O)c1csc(-c2ccc(Cl)cc2)n1` was under 0.1 µM; that for `CCCC(=O)NC(c1ccco1)c1cc([N+](=O)[O-])c2cccnc2c1O` (centres undefined) was 22.9 µM; that for `CCCCC(CC)CN=C(N)NC(N)=NCCCCCCN=C(N)NC(N)=NCC(CC)CCCC` (centres undefined) was 0.83 µM.
The value for `O=C(Nc1ccc(Cl)cc1)Nc1ccc2c(c1)N1CCN=C1S2` was 13.9 µM.
Turning to `CCc1ccc(CNCc2ccc(OCC(O)CN(C)Cc3ccccc3)cc2)nc1` (centres undefined), the EC50 is 23 µM.
For `O=C(CN1C2=NCCCN2c2ccccc21)c1ccc(Br)s1` the value was 41.9 µM; for `CCn1nnc(NC(=O)c2ccc([N+](=O)[O-])o2)n1`, 13.6 µM; for `O=c1ccc2cc3c([nH]c4ccc(Br)cc43)oc-2c1O`, 18.9 µM.
The value for `C=C(C)COc1ccc2c(C)c(CCC(=O)NC3CC3)c(=O)oc2c1` was under 0.1 µM; that for `CCN1/C(=C/C(C)=C/c2sc3ccccc3[n+]2CC)Sc2ccccc21` was 0.72 µM.
The value for `CN1CCN(C2=Cc3cc(Cl)ccc3Sc3cc(F)ccc32)CC1` was 13.4 µM.
On to `COc1ccc(/C=N/Nc2cc(C)nc3c(C)cccc23)cc1`, for which the EC50 is 5.61 µM.
As to `Cc1cc(N/N=C/c2ccc(F)cc2)nc(NCc2ccccc2)n1`, the EC50 was 22.5 µM.
For `N/C(=N\OC(=O)N1CCOCC1)c1ccccc1` the value was 15.5 µM; for `C#CCOCCOCCOCCNc1nc(N2CCN(C(=O)CCCCCCCCCCNC(=O)[C@H](CCCCN)n3cc(CCO)nn3)CC2)nc(N2CCN(C(=O)CCCCCCCCCCNC(=O)[C@H](CCCCN)n3cc(C[C@@H](C)CC)nn3)CC2)n1`, 12.9 µM.
For `N=C1c2ccccc2CN1c1ncccn1` the value was under 0.1 µM; for `COc1ccc(C(=O)NNC(=S)NC(=O)c2ccccc2)cc1`, 6.81 µM.
The value for `COc1ccc(C2NCCc3c2[nH]c2ccccc32)cc1COc1ccc(F)cc1` (centres undefined) was 6.94 µM; that for `Clc1ccc2c(c1)c1cc(Cl)ccc1n2CN1CCOCC1` was 27.2 µM.
With `Cc1cnc(C(=O)Nc2nnc(C)s2)cn1`, the 50% effective concentration (EC50) is under 0.1 µM.
The value for `Clc1ccc(C(c2ccc(Cl)cc2)n2cc[n+](CC(OCc3ccc(Cl)cc3Cl)c3ccc(Cl)cc3Cl)c2)cc1` (centres undefined) was 1.45 µM; that for `O=C(C[n+]1cc(-c2ccc(Cl)c(Cl)c2)n2c1CCC2)N1c2ccccc2Sc2ccccc21` was 10.3 µM; that for `O=C(O)c1ccc(NC2=C(Cl)C(=O)c3ccccc3C2=O)cc1` was 11.5 µM.
For `Cc1ccc2c(c1)c1c(n2CC(O)CNC2CCCCC2)CCCC1` (centres undefined) the value was 7.7 µM.
For `CC1CC(C)CN(C(=O)c2ccc(NC(=O)c3ccc(=O)[nH]c3)cc2)C1` (centres undefined) the value was 33 µM.
For the compound `NC(N)=N/N=C/c1ccc(OCc2ccc(Cl)cc2)cc1`, the half-maximal effective concentration (EC50) was 5.57 µM.
For `CC(C(=O)c1ccc(-c2ccccc2)cc1)[n+]1cccc(NC(=O)c2ccccc2)c1` (centres undefined) the value was 17.7 µM; for `Cc1cc(OCC(O)CNC(C)c2ccccc2)ccc1C(C)C` (centres undefined), 13.4 µM; for `CCCCOc1ccc(C(=O)OC2CC(C)N(C)CC2C)cc1` (centres undefined), 30.7 µM.
For `Cc1nnc(N/N=C/c2ccccn2)[nH]c1=O` the value was 1.62 µM; for `CN1CCN(c2ccccc2NC(=O)c2sc3ccccc3c2Cl)CC1`, 24.9 µM; for `Cc1c(O)cccc1C(=O)N[C@@H](CSc1ccccc1)[C@H](O)CN1C[C@H]2CCCC[C@H]2C[C@H]1C(=O)NC(C)(C)C`, 11.9 µM and 11.6 µM.
For `Cc1cc(C)c2sc(N(CCCN(C)C)C(=O)COc3ccc(Cl)cc3)nc2c1` the value was 17.7 µM; for `COc1ccc(C(=O)NC(=S)NNC(=O)c2cnccn2)cc1`, 2.98 µM; for `Cc1cc([N+](=O)[O-])cc(/C=N\NC(=O)C2COc3ccccc3O2)c1O` (centres undefined), 14.3 µM.
For `CCCCn1c(=N)n(CC(=O)c2ccc(Br)s2)c2ccccc21`, the EC50 is 5.43 µM.
For `Cc1cccc(/C(N)=N/OC(=O)N2CCOCC2)c1` the value was 8.03 µM.
The value for `O=C(c1cccs1)c1no[n+]([O-])c1C(=O)c1cccs1` was 1.89 µM.
For `CCCCCCCCCCOC(=O)Cn1c(COc2ccccc2OC)[n+](C)c2ccccc21` the value was 1.64 µM.
Turning to `O=C(N/N=C/c1cc([N+](=O)[O-])ccc1O)C(O)(c1ccccc1)c1ccccc1`, the EC50 is 11.8 µM.
Take `O=C(/C=C/c1ccc(F)cc1)NC(=S)NNC(=O)c1cnccn1`: the 50% effective concentration (EC50) is 6.17 µM.
The value for `N=c1c2c(n(Cc3ccc(Cl)cc3Cl)c3c1CCC3)CCCC2` was 3.66 µM; that for `COc1ccc(/C=N/Nc2cc(C)nc3ccc(Br)cc23)cc1` was 4.17 µM.
The value for `CC1CCN(CC(CS(=O)(=O)c2ccc([N+](=O)[O-])cc2)N2CCC(C)CC2)CC1` (centres undefined) was 14.6 µM.
Turning to `CCCCCN=C(N)N/N=C/c1c[nH]c2ccc(OC)cc12`, the concentration giving a half-maximal response (EC50) was 2.57 µM.
For `Cc1cccc(Nc2cc(C)c3c(O)cccc3n2)c1C` the value was 5.35 µM.
